# Reference: patent US10526352B2, “Tricyclic benzoxaborole compounds and uses thereof” (GlaxoSmithKline Intellectual Property (No.2) Limited, priority 2013, dated 2020)
# Where two headings read alike, the source gives them in different places.
# Assays:
# [1] = test system: M. tuberculosis standard strain Mtb H37Rv; test: MIC determination against mycobacteria (resazurin, Middlebrook 7H9); type: cell-based, Mycobacterium tuberculosis
# [2] = test system: HepG2 cells
# [3] = test system: A. baumannii ATCC 17978; test: General antimicrobial activity assay (CLSI broth microdilution); type: cell-based, Acinetobacter baumannii
# Experimental: (§1) Whole-cell antimicrobial activity was determined by broth microdilution using the Clinical and Laboratory Standards Institute (CLSI) recommended procedure, Document M7-A7, “Methods for Dilution Susceptibility Tests for Bacteria that Grow Aerobically”.
# [4] = test system: E. coli K12; test: as above; type: cell-based, Escherichia coli
# Experimental: as §1
# [5] = test system: E. coli K12 tolC::Tn10; test: as above; type: cell-based, Escherichia coli
# Experimental: as §1
# [6] = test system: P. aeruginosa PA01; test: as above; type: cell-based, Pseudomonas aeruginosa
# Experimental: as §1
# [7] = test system: M. tuberculosis clinical isolates; test: MIC against clinical strains (BACTEC MGIT 960 System); type: cell-based; conditions: Mycobacterium tuberculosis
# [8] = Mycobacterium tuberculosis, H37RV, read-out: Mtb H37Rv MIC (B)
# [9] = HepG2 Tox50 (A) / Mtb H37Rv MIC (B)
# [10] = Mycobacterium tuberculosis, H37RV; read-out: Mtb H37Rv MIC (B)
Compound,"MIC [1, 8] [µM]","Selectivity Index (A/B) [2, 9]","HepG2 cell 48 h Tox50 (A) ([2]; human, 48 h) [µM]",MIC: A. baumannii ATCC 17978 [3] [µg/mL],MIC: E. coli K12 [4] [µg/mL],MIC: E. coli K12 tolC::Tn10 [5] [µg/mL],HepG2 cell 48 h Tox50 (A) ([2]; 48 h) [µM],MIC: P. aeruginosa PA01 [6] [µg/mL],other results
"Cl.NCC1OB2OCCOc3ccc(Cl)c1c32 (stereo not drawn) [Example 3, 3-chloro-7,8-dihydro-2H-1,6,9-trioxa-9a-borabenzo[cd]azulen-2-yl)methanamine hydrochloride]",0.47,,,,,,,,
"C[C@]1(CO)COc2ccc(Cl)c3c2B(OC3CN)O1 (stereo partly drawn) [Example 15, ((2S, 8S, or 2R, 8R)-2-(aminomethyl)-3-chloro-8-methyl-7,8-dihydro-2H-1,6,9-trioxa-9a-borabenzo[cd]azulen-8-yl)methanol]",0.93,>50,>50,,,,,,
"NC[C@H]1OB2OCCOc3c(Cl)cc(Cl)c1c32 [Example C14-Cl2, reference compound]",> 5,>10,>50,,,,,,
"CC1COc2c(Cl)cc(Cl)c3c2B(O1)OC3CN (stereo not drawn) [Example C7-Cl2, reference compound]",2.5,>20,>50,,,,,,
"Cl.NC[C@H]1OB2OCCOc3ccc(I)c1c32 [Example 6, (S)-(3-iodo-7,8-dihydro-2H-1,6,9-trioxa-9a-borabenzo[cd]azulen-2-yl)methanamine hydrochloride]",0.3,,,,,,,,
"c1cc2c3c(c1)OCCOB3OC2 [Example C1-H, reference compound]",,,,,,,,,"MIC [1, 10]: 31 µM"
"CC1(C)COB2OC(CN)c3cccc(c32)O1 (stereo not drawn) [Example C10-H, reference compound]",> 5,10,>50,,,,,,
"CC1COc2ccc(Br)c3c2B(O1)OC3CN.Cl (stereo not drawn) [Example 8, (3-bromo-8-methyl-7,8-dihydro-2H-1,6,9-trioxa-9a-borabenzo[cd]azulen-2-yl)methanamine hydrochloride]",0.3,,,>64,>64,>64,>50,>64,Selectivity Index (A/B) [2]: >167
Cl.NCC1OB2OCCOc3ccc(Cl)c1c32 (stereo not drawn) [Example 3],,,,>64,>64,>64,>50,>64,Selectivity Index (A/B) ([2]; hydrochloride): >106
"CC1(C)COc2ccc(Cl)c3c2B(O[C@@H]3CN)O1.Cl [Example 12, (S)-(3-chloro-8,8-dimethyl-7,8-dihydro-2H-1,6,9-trioxa-9a-borabenzo[cd]azulen-2-yl)methanamine Hydrochloride]",0.08,,,>64,>64,>64,,>64,
"NCCOc1cccc2c1B(O)OC2 [Example C3-H, reference compound]",,>0.8,,,,,>50,,"MIC [1, 10]: 62 µM"
"CCOc1cccc2c1B(O)O[C@@H]2CN [Example C5-H, reference compound]",,3,,,,,1.8,,"MIC [1, 10]: 0.6 µM"
NC[C@H]1OB2OCCOc3ccc(Cl)c1c32 [Example G4-Cl],,,,,,,,,"MIC ([7]; for all of but 1 of the 40 clinical isolate strains tested): < 1 µM; MIC ([7]; read-out: measured MIC (breakdown), for 1 strain of 97 clinical isolates): ≤ 0.2 µM; MIC ([7]; read-out: measured MIC (breakdown), for 3 strains of 97 clinical isolates): 0.31 µM; MIC ([7]; read-out: measured MIC (breakdown), for 8 strains of 97 clinical isolates (first group)): 0.04 µM; MIC ([7]; read-out: measured MIC (breakdown), for 8 strains of 97 clinical isolates (second group)): 0.16 µM; MIC ([7]; read-out: measured MIC (breakdown), for 76 strains of 97 clinical isolates): 0.08 µM"
"CC1(C)COB2OC(CN)c3c(Cl)ccc(c32)O1 (stereo not drawn) [Example C9-Cl, reference compound]",5,>10,>50,,,,,,
"Cl.NCC1OB2OCCOc3ccc(F)c1c32 (stereo not drawn) [Example 5, (3-fluoro-7,8-dihydro-2H-1,6,9-trioxa-9a-borabenzo[cd]azulen-2-yl)methanamine hydrochloride)]",0.6,,,,,,,,
"CC1(C)COc2ccc(Br)c3c2B(O[C@@H]3CN)O1.Cl [Example 10, (S)-(3-bromo-8,8-dimethyl-7,8-dihydro-2H-1,6,9-trioxa-9a-borabenzo[cd]azulen-2-yl)methanamine Hydrochloride]",0.16,,,>64,>64,>64,,>64,
"C[C@@]1(CO)COc2ccc(Br)c3c2B(OC3CN)O1 (stereo partly drawn) [Example 16, ((2S, 8R, or 2R, 8S)-2-(aminomethyl)-3-bromo-8-methyl-7,8-dihydro-2H-1,6,9-trioxa-9a-borabenzo[cd]azulen-8-yl)methanol]",1.25,>40,>50,,,,,,
"CC1(C)COc2cccc3c2B(OC3CN)O1 (stereo not drawn) [Example C12-H, reference compound]",> 5,>4.9,24.5,4,4,2,,16,
Cl.NCC1OB2OCCOc3ccc(F)c1c32 (stereo not drawn) [Example 5],,,,>64,32,64,,4,
"Cl.NCC1OB2OCCOc3ccc(Br)c1c32 (stereo not drawn) [Example 1, 3-bromo-7,8-dihydro-2H-1,6,9-trioxa-9a-borabenzo[cd]azulen-2-yl)methanamine Hydrochloride]",0.18,,,,,,,,
"CC1(C)COc2ccc(Cl)c3c2B(OC3CN)O1.Cl (stereo not drawn) [Example 11, (3-chloro-8,8-di methyl-7,8-dihydro-2H-1,6,9-trioxa-9a-borabenzo[cd]azulen-2-yl)methanamine Hydrochloride]",0.27,,,>64,>64,>64,>50,>64,Selectivity Index (A/B) ([2]; hydrochloride): >185
"CC1COc2cccc3c2B(O1)OC3CN (stereo not drawn) [Example C11-H, reference compound]",1.56,>32,> 50,4,2,2,,2,"HepG2 cell 48 h, figure in brackets beside Tox50 ([2]; 48 h, printed as >50 (40%)): 40%"
"CC1(C)COc2ccc(Br)c3c2B(OC3CN)O1.Cl (stereo not drawn) [Example 9, (3-bromo-8,8-dimethyl-7,8-dihydro-2H-1,6,9-trioxa-9a-borabenzo[cd]azulen-2-yl)methanamine hydrochloride]",0.3,,,>64,>64,>64,>50,>64,Selectivity Index (A/B) ([2]; hydrochloride): >167
"CC1COc2ccc(Cl)c3c2B(O1)OC3CN.Cl (stereo not drawn) [Example 7, (3-chloro-8-methyl-7,8-dihydro-2H-1,6,9-trioxa-9a-borabenzo[cd]azulen-2-yl)methanamine Hydrochloride]",0.2,,,>64,>64,>64,>50,>64,Selectivity Index (A/B) [2]: >250
"CC1(C)COc2c(Cl)ccc3c2B(OC3CN)O1 (stereo not drawn) [Example C8-Cl, reference compound]",> 5,10,>50,,,,,,
"NCC1OB2OCCOc3cccc1c32 (racemic) [Example C2-H, reference compound]",1.88,>26,>50,2,2,4,,2,
"C[C@@]1(CO)COc2ccc(Cl)c3c2B(OC3CN)O1 (single isomer, unassigned) [Example 14, ((2S, 8R or 2R, 8S)-2-(aminomethyl)-3-chloro-8-methyl-7,8-dihydro-2H-1,6,9-trioxa-9a-borabenzo[cd]azulen-8-yl)methanol]",1.25,>4,>50,,,,,,
Cl.NCC1OB2OCCOc3ccc(Br)c1c32 (stereo not drawn) [Example 1],,,,>64,>64,>64,>50,>64,Selectivity Index (A/B) ([2]; hydrochloride): >277
"Cl.NC[C@H]1OB2O[C@H](CO)COc3ccc(F)c1c32 [Example 13, ((2S,8R)-2-(aminomethyl)-3-fluoro-7,8-dihydro-2H-1,6,9-trioxa-9a-borabenzo[cd]azulen-8-yl)methanol Hydrochloride]",0.55,,,,,,>50,,Selectivity Index (A/B) [2]: >10
